Measured values from ChEMBL document CHEMBL3352575, “Synthesis, in vitro and in vivo antitumor activity of pyrazole-fused 23-hydroxybetulinic acid derivatives” (Bioorg Med Chem Lett, 2015).

Columns and labels:
Assay type in all cases: functional, cell-based
HeLa = experiment: Antiproliferative activity against human HeLa cells after 72 hrs by MTT assay
[1] = Antiproliferative activity against human HL60 cells after 72 hrs by MTT assay; conditions: HL-60, 72 h
B16 = experiment: Antiproliferative activity against mouse B16 cells after 72 hrs by MTT assay; conditions: B16, 72 h
[2] = Antiproliferative activity against human SF763 cells after 72 hrs by MTT assay; conditions: SF763, 72 h
[3] = Antiproliferative activity against human Bel7402 cells after 72 hrs by MTT assay; conditions: Bel-7402, 72 h

SMILES	IC50 (HeLa) [µM]	IC50 [1] [µM]	IC50 (B16) [µM]	IC50 [2] [µM]	IC50 [3] [µM]
C=C(C)[C@@H]1CC[C@]2(C(=O)OCc3ccccc3)CC[C@]3(C)[C@H](CC[C@@H]4[C@@]5(C)Cc6c[nH]nc6[C@@](C)(CO)[C@@H]5CC[C@]43C)[C@@H]12	16.1	20.1	13	11.7	13.9
C=C(C)[C@@H]1CC[C@]2(C(=O)OCc3ccccc3)CC[C@]3(C)[C@H](CC[C@@H]4[C@@]5(C)Cc6cn(C(C)=O)nc6[C@@](C)(COC(C)=O)[C@@H]5CC[C@]43C)[C@@H]12	30.9	33.6	28	28.4	26.7
C=C(C)[C@@H]1CC[C@]2(C(=O)O)CC[C@]3(C)[C@H](CC[C@@H]4[C@@]5(C)Cc6cn(C(C)=O)nc6[C@@](C)(COC(C)=O)[C@@H]5CC[C@]43C)[C@@H]12	33.8	39.1	37.4	31.5	30.7
C=C(C)[C@@H]1CC[C@]2(C(=O)O)CC[C@]3(C)[C@H](CC[C@@H]4[C@@]5(C)Cc6c[nH]nc6[C@@](C)(COC(C)=O)[C@@H]5CC[C@]43C)[C@@H]12	17.8	25.1	15.3	14.1	17.1
C=C(C)[C@@H]1CC[C@]2(C(=O)O)CC[C@]3(C)[C@H](CC[C@@H]4[C@@]5(C)Cc6c[nH]nc6[C@@](C)(CO)[C@@H]5CC[C@]43C)[C@@H]12	21.1	29.1	19.8	20.8	21
C=C(C)[C@@H]1CC[C@]2(C(=O)OCC)CC[C@]3(C)[C@H](CC[C@@H]4[C@@]5(C)Cc6cn(C(C)=O)nc6[C@@](C)(COC(C)=O)[C@@H]5CC[C@]43C)[C@@H]12	32.6	40.2	30.2	29.4	33.7
C=C(C)[C@@H]1CC[C@]2(C(=O)OCC(=O)OCC)CC[C@]3(C)[C@H](CC[C@@H]4[C@@]5(C)Cc6cn(C(C)=O)nc6[C@@](C)(COC(C)=O)[C@@H]5CC[C@]43C)[C@@H]12	40.4	45.6	35.7	37.6	36
C=CCOC(=O)[C@]12CC[C@@H](C(=C)C)[C@@H]1[C@H]1CC[C@@H]3[C@@]4(C)Cc5cn(C(C)=O)nc5[C@@](C)(COC(C)=O)[C@@H]4CC[C@@]3(C)[C@]1(C)CC2	27.4	32.3	19.8	19.5	23.1
C=C(C)[C@@H]1CC[C@]2(C(=O)OCC)CC[C@]3(C)[C@H](CC[C@@H]4[C@@]5(C)Cc6c[nH]nc6[C@@](C)(CO)[C@@H]5CC[C@]43C)[C@@H]12	16.2	21.1	16.1	13.3	15.2
C=CCOC(=O)[C@]12CC[C@@H](C(=C)C)[C@@H]1[C@H]1CC[C@@H]3[C@@]4(C)Cc5c[nH]nc5[C@@](C)(CO)[C@@H]4CC[C@@]3(C)[C@]1(C)CC2	19.5	24.3	18	18.7	17.8
C=C(C)[C@@H]1CC[C@]2(C(=O)O[C@@H]3O[C@H](CO)[C@@H](O)[C@H](O)[C@H]3O)CC[C@]3(C)[C@H](CC[C@@H]4[C@@]5(C)Cc6c[nH]nc6[C@@](C)(COC(C)=O)[C@@H]5CC[C@]43C)[C@@H]12	20	28.5	18.9	20.1	14.1
COc1cccc2c1C(=O)c1c(O)c3c(c(O)c1C2=O)C[C@@](O)(C(=O)CO)C[C@@H]3O[C@H]1C[C@H](N)[C@H](O)[C@H](C)O1 [DOXORUBICIN]					0.22
